Literature values in patent US20220211602A1, “INCREASING THE STABILITY OF AGENTS FOR TREATING KERATIN MATERIAL” (Henkel AG & Co. KGaA, priority 2019, published 2022).

Settings: for solubility in water: 25° C.

solubility in water (in words) (at 25° C.) | Compound | solubility in water
 | O=S(=O)([O-])c1ccc(N=Nc2c(O)ccc3ccccc23)cc1.[Na+] [Acid Orange 7, sodium salt of 4-[(2-hydroxy-1-naphthyDazo]benzene sulphonate] | more than 7 g/L
 | O=C([O-])c1c(Cl)c(Cl)c(Cl)c(Cl)c1-c1c2c(Br)cc(=O)c(Br)c-2oc2c(Br)c(O)cc(Br)c12.O=C([O-])c1c(Cl)c(Cl)c(Cl)c(Cl)c1-c1c2c(Br)cc(=O)c(Br)c-2oc2c(Br)c(O)cc(Br)c12.[Na+].[Na+] [Acid Red 92, disodium salt of 3,4,5,6-tetrachloro-2-(1,4,5,8-tetrabromo-6-hydroxy-3-oxoxanthen-9-yl)benzoic acid] | greater than 10 g/L
 | Nc1cc(S(=O)(=O)[O-])cc2cc(S(=O)(=O)[O-])c(N=Nc3ccccc3)c(O)c12.[Na+].[Na+] [Acid Red 33, disodium salt of 5-amino-4-hydroxy-3-(phenylazo)-naphthalene-2,7-disulphonate] | 2500 µg/mL
highly soluble | O=C([O-])C1=NN(c2ccc(S(=O)(=O)[O-])cc2)C(=O)C1N=Nc1ccc(S(=O)(=O)[O-])cc1.[Na+].[Na+].[Na+] (stereo not shown) [Acid Yellow 23, trisodium salt of4,5-dihydro-5-oxo-1-(4-sulfophenyl)-4-((4-sulfophenyl)azo)-1H-pyrazole-3-carboxylic acid] | 
